PubChem BioAssay (NCI)
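In this assay, cells in 96-well plates receive the compound at five concentrations for 48 hours. Endpoints are linearly interpolated between the surrounding concentrations. The concentration for 50% growth inhibition is given as GI50. TGI: concentration producing complete growth inhibition.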

Key:
Experiment in all cases: NCI anticancer screen, dose series, 48 h
NCI-H226 lung = test system: NCI-H226 lung
K-562 leukemia = test system: K-562 leukemia
TK-10 renal = test system: TK-10 renal
MOLT-4 leukemia = test system: MOLT-4 leukemia
CCRF-CEM leukemia = test system: CCRF-CEM leukemia
IGROV1 ovarian = test system: IGROV1 ovarian
PC-3 prostate = test system: PC-3 prostate
SF-295 CNS = test system: SF-295 CNS
MDA-MB-435 = test system: MDA-MB-435
U251 CNS = test system: U251 CNS
SNB-75 CNS = test system: SNB-75 CNS
SR leukemia = test system: SR leukemia
NCI-H23 lung = test system: NCI-H23 lung
MCF7 breast = test system: MCF7 breast
MDA-MB-231 breast = test system: MDA-MB-231 breast
CAKI-1 renal = test system: CAKI-1 renal
HCT-116 colon = test system: HCT-116 colon
RPMI-8226 leukemia = test system: RPMI-8226 leukemia
UACC-257 melanoma = test system: UACC-257 melanoma
COLO 205 colon = test system: COLO 205 colon
A498 renal = test system: A498 renal
UO-31 renal = test system: UO-31 renal
786-0 renal = test system: 786-0 renal
SF-539 CNS = test system: SF-539 CNS
EKVX NSCLC = test system: EKVX NSCLC
SF-268 CNS = test system: SF-268 CNS
T-47D breast = test system: T-47D breast
UACC-62 melanoma = test system: UACC-62 melanoma
ACHN renal = test system: ACHN renal
HOP-62 NSCLC = test system: HOP-62 NSCLC
OVCAR-5 ovarian = test system: OVCAR-5 ovarian
SW-620 colon = test system: SW-620 colon
HL-60(TB) leukemia = test system: HL-60(TB) leukemia
OVCAR-4 ovarian = test system: OVCAR-4 ovarian
NCI/ADR-RES ovarian = test system: NCI/ADR-RES ovarian
SNB-19 CNS = test system: SNB-19 CNS
SK-MEL-5 melanoma = test system: SK-MEL-5 melanoma
NCI-H522 lung = test system: NCI-H522 lung
MALME-3M melanoma = test system: MALME-3M melanoma
HOP-92 NSCLC = test system: HOP-92 NSCLC
SK-MEL-2 melanoma = test system: SK-MEL-2 melanoma
SK-OV-3 ovarian = test system: SK-OV-3 ovarian
BT-549 breast = test system: BT-549 breast
KM12 colon = test system: KM12 colon
SK-MEL-28 melanoma = test system: SK-MEL-28 melanoma
SN12C renal = test system: SN12C renal
OVCAR-3 ovarian = test system: OVCAR-3 ovarian
HCT-15 colon = test system: HCT-15 colon
HT29 colon = test system: HT29 colon
LOX IMVI melanoma = test system: LOX IMVI melanoma
A549 NSCLC = test system: A549 NSCLC
NCI-H460 lung = test system: NCI-H460 lung
HS 578T breast = test system: HS 578T breast
RXF 393 renal = test system: RXF 393 renal
DU-145 prostate = test system: DU-145 prostate
OVCAR-8 ovarian = test system: OVCAR-8 ovarian
HCC-2998 colon = test system: HCC-2998 colon

CC[C@@H](C(=O)[C@H](C)[C@H](O)[C@@H](C)[C@H]1O[C@H]([C@@H](CC)C(=O)N(CC)CC)CC[C@H]1C)C1O[C@]2(C=C[C@@H](O)[C@]3(CC[C@@](C)([C@H]4CC[C@](O)(CC)[C@H](C)O4)O3)O2)[C@H](C)C[C@@H]1C (some centres undefined)
GI50 (NCI-H226 lung): 2.69 µM
TGI (NCI-H226 lung): 10.9 µM
GI50 (K-562 leukemia): 3.12 µM
TGI (K-562 leukemia): 19.4 µM
GI50 (TK-10 renal): 3.35 µM
TGI (TK-10 renal): 26.7 µM
GI50 (MOLT-4 leukemia): 2.55 µM
TGI (MOLT-4 leukemia): 7.05 µM
GI50 (CCRF-CEM leukemia): 3.39 µM
TGI (CCRF-CEM leukemia): 13.4 µM
GI50 (IGROV1 ovarian): 2.73 µM
TGI (IGROV1 ovarian): 10.8 µM
GI50 (PC-3 prostate): 2.54 µM
TGI (PC-3 prostate): 11.9 µM
GI50 (SF-295 CNS): 2.49 µM
TGI (SF-295 CNS): 9.81 µM
GI50 (MDA-MB-435): 2.81 µM
TGI (MDA-MB-435): 9.8 µM
GI50 (U251 CNS): 3.33 µM
TGI (U251 CNS): 14 µM
GI50 (SNB-75 CNS): 1.72 µM
TGI (SNB-75 CNS): 11.1 µM
GI50 (SR leukemia): 2.91 µM
TGI (SR leukemia): 13.6 µM
GI50 (NCI-H23 lung): 2.81 µM
TGI (NCI-H23 lung): 8.94 µM
GI50 (MCF7 breast): 2.61 µM
TGI (MCF7 breast): 10.1 µM
GI50 (MDA-MB-231 breast): 1.86 µM
TGI (MDA-MB-231 breast): 4.29 µM
GI50 (CAKI-1 renal): 2.12 µM
TGI (CAKI-1 renal): 8.06 µM
GI50 (HCT-116 colon): 2.9 µM
TGI (HCT-116 colon): 12.5 µM
GI50 (RPMI-8226 leukemia): 2.05 µM
TGI (RPMI-8226 leukemia): 6.15 µM
GI50 (UACC-257 melanoma): 3.07 µM
TGI (UACC-257 melanoma): 12.4 µM
GI50 (COLO 205 colon): 2.5 µM
TGI (COLO 205 colon): 5.82 µM
GI50 (A498 renal): 2.44 µM
TGI (A498 renal): 8.21 µM
GI50 (UO-31 renal): 2.4 µM
TGI (UO-31 renal): 7.94 µM
GI50 (786-0 renal): 3.55 µM
TGI (786-0 renal): 17.5 µM
GI50 (SF-539 CNS): 3.01 µM
TGI (SF-539 CNS): 10.5 µM
GI50 (EKVX NSCLC): 2.58 µM
TGI (EKVX NSCLC): 11.4 µM
GI50 (SF-268 CNS): 3.6 µM
TGI (SF-268 CNS): 19.3 µM
GI50 (T-47D breast): 2.44 µM
TGI (T-47D breast): 13.7 µM
GI50 (UACC-62 melanoma): 2.43 µM
TGI (UACC-62 melanoma): 10.8 µM
GI50 (ACHN renal): 2.93 µM
TGI (ACHN renal): 10 µM
GI50 (HOP-62 NSCLC): 4.33 µM
TGI (HOP-62 NSCLC): 19.5 µM
GI50 (OVCAR-5 ovarian): 2.85 µM
TGI (OVCAR-5 ovarian): 11.1 µM
GI50 (SW-620 colon): 3.22 µM
TGI (SW-620 colon): 13.3 µM
GI50 (HL-60(TB) leukemia): 2.24 µM
TGI (HL-60(TB) leukemia): 5.13 µM
GI50 (OVCAR-4 ovarian): 3.04 µM
TGI (OVCAR-4 ovarian): 11.3 µM
GI50 (NCI/ADR-RES ovarian): 2.56 µM
TGI (NCI/ADR-RES ovarian): 9.27 µM
GI50 (SNB-19 CNS): 3.24 µM
TGI (SNB-19 CNS): 16.8 µM
GI50 (SK-MEL-5 melanoma): 1.76 µM
TGI (SK-MEL-5 melanoma): 3.24 µM
GI50 (NCI-H522 lung): 2.34 µM
TGI (NCI-H522 lung): 7.74 µM
GI50 (MALME-3M melanoma): 2.21 µM
TGI (MALME-3M melanoma): 5.7 µM
GI50 (HOP-92 NSCLC): 1.45 µM
TGI (HOP-92 NSCLC): 5.43 µM
GI50 (SK-MEL-2 melanoma): 3.19 µM
TGI (SK-MEL-2 melanoma): 9.21 µM
GI50 (SK-OV-3 ovarian): 3.06 µM
TGI (SK-OV-3 ovarian): 10.1 µM
GI50 (BT-549 breast): 3.33 µM
TGI (BT-549 breast): 14.8 µM
GI50 (KM12 colon): 2.53 µM
TGI (KM12 colon): 7.03 µM
GI50 (SK-MEL-28 melanoma): 4.97 µM
TGI (SK-MEL-28 melanoma): 17 µM
GI50 (SN12C renal): 2.75 µM
TGI (SN12C renal): 10.1 µM
GI50 (OVCAR-3 ovarian): 2.64 µM
TGI (OVCAR-3 ovarian): 8.16 µM
GI50 (HCT-15 colon): 2.64 µM
TGI (HCT-15 colon): 8.28 µM
GI50 (HT29 colon): 3.34 µM
TGI (HT29 colon): 15.6 µM
GI50 (LOX IMVI melanoma): 1.83 µM
TGI (LOX IMVI melanoma): 4.29 µM
GI50 (A549 NSCLC): 2.95 µM
TGI (A549 NSCLC): 17.6 µM
GI50 (NCI-H460 lung): 2.61 µM
TGI (NCI-H460 lung): 7.3 µM
GI50 (HS 578T breast): 2.9 µM
TGI (HS 578T breast): 13.8 µM
GI50 (RXF 393 renal): 2.06 µM
TGI (RXF 393 renal): 5.87 µM
GI50 (DU-145 prostate): 3.91 µM
TGI (DU-145 prostate): 14.9 µM
GI50 (OVCAR-8 ovarian): 3.42 µM
TGI (OVCAR-8 ovarian): 21.1 µM
GI50 (HCC-2998 colon): 2.97 µM
TGI (HCC-2998 colon): 10.7 µM
